Measured values taken from patent US7399475B1, “Inactivated microorganisms comprising substances having pharmacological activity” (Toner Enterprise Inc., priority 1999, dated 2008).

Experiments:
[1] = Incorporated vitamins determined by HPLC after 5N HCl or NaOH 0.05N extraction of dried yeast; type: physicochemical, Saccharomyces cerevisiae; conditions: Example 10, content in dried loaded yeast; for Incorporated vitamins (HCl extraction), Content: 5N HCl extraction; for Incorporated vitamins (NaOH extraction), Content: NaOH 0.05N extraction
Description: In this treatment yeast cells have been partially emptied by the hypertonic solution, comprising NaCl and Trisodium citrate bihydrate, as already described. Vitamins were then incorporated by incubation in a vitamins hypotonic solution (hypotonic=80% isotonicity). The quantity of vitamins loaded into the cells, was measured by HPLC. The suspension was then centrifuged and the centrifugates was washed twice with 560 g NaCl isotonic solution (0.9%). Step IV)-The centrifugate was air-dried at 45° C. for 36 hours. After mincing the dried pellets were sifted on a 400μ net. Step V)-The incorporated vitamins quantities were determined by HPLC af[…] HCl extraction for one hours at 25° C. under gentle stirring and after NaOH 0.05N extraction (one hours at 25° C. under gentle stirring). In this treatment yeast cells have been partially emptied by the hypertonic solution, comprising NaCl and Trisodium citrate bihydrate, as already described. α-tocopherol (vitamin E) was then incorporated by incubation in a vitamin hypotonic solution (hypotonic=80% isotonicity). The quantity of vitamin loaded into the cells, was measured HPLC. […] An aliquot of the solution (B), was then washed one more time with a NaCl isotonic solution Step IV)-The centrifugate was air-dried at 40° C. for 36 hours. The dried mass of cells was minced and then sifted on a 400μ net. Step V)-The incorporated vitamin quantities were determined by HPLC af[…] HCl extraction for one hour at 25° C. under gentle stirring.

[2] = Quantity of active agent incorporated in the yeast cells, released by hypertonic (osmotic) treatment and determined by HPLC; type: physicochemical, Saccharomyces cerevisiae; conditions: batch not stated, column unlabelled
Description: The suspensions obtained as described above were tested in order to check the quantity of ascorbic acid that had accumulated in the cells.
Step IV)—The suspension obtained in Step III) was centrifuged at 4000 r.p.m. (1252 R.C.F.). The precipitated was washed twice (sample A) or thrice (sample B) with an isotonic solution of sodium chloride (0.9%) keeping it in suspension during each washing.
Step V)—The centrifugate was brought up to 80 g with the hypertonic solution (NaCl 2.0M) used for Step I). In order to complete the osmotic treatment, the suspension was kept under gentle stirring for 6 hours at 25° C.
Step VI)—The ascorbic acid present in each solution (mg/ml) and in the microorganism (mg/g) was determined by HPLC, by the use of the following formula: mg/g=Ac×Ps×fs×Ds×1000/As×Pc×Dc,
The suspension obtained as described above was tested in order to check the quantity of oxytetracycline that had accumulated in the cells.
Step IV)—The suspension obtained in Step II) was centrifuged at 4000 r.p.m. (1252 R.C.F.). The centrifugate was washed twice (A) or thrice (B) with an isotonic solution of sodium chloride (0.9%) keeping it in suspension for 10 minutes before centrifugation.
Step VI)—The oxytetracycline HCl present in each solution (mg/ml) and in the microorganism (mg/g) was determined by HPLC, by the use of the following formula: mg/g=Ac×Ps×fs×Ds×1000/As×Pc×Dc,
The suspension obtained as described above was tested in order to check the quantity of sodium sulphadimethoxine that had accumulated in the cells.
Step VI)—The sodium sulphadimethoxine present in each (mg/ml) and in the microorganism (mg/g) was determined by HPLC, by the use of the following formula: mg/g=Ac×Ps×fs×Ds×1000/As×Pc×Dc,
The suspension as previously obtained was tested to ascertain the quantity of sodium sulphadimethoxin that had accumulated in the cells.
Step IV)—For analytical reasons, the suspension obtained in Step III) was diluted with an isotonic solution of sodium sulphadimethoxin (5.17%) to 200 g. An aliquot of 80 g of suspension was taken. The suspension was centrifuged at 10 000 r.p.m., and the centrifugate was washed twice (A) or thrice (B) with an isotonic solution of sodium chloride (0.9%). The suspension was stirred for 10 minutes before each washing.
Step VI)—The sodium sulphadimethoxin present in solution (mg/ml) and in the microorganism (mg/g) was determined by HPLC, by the use of the following formula: mg/g=Ac×Ps×fs×Ds×1000/As×Pc×Dc,
The suspension obtained as described above was tested in order to check the quantity of ascorbic acid that had been loaded in the cells. […]
Step VI)—The ascorbic acid present in the washing solution (mg/ml) and in the microorganism (mg/g) was determined by HPLC, by the use of the following formula: mg/g=Ac×Ps×fs×Ds×1000/As×Pc×Dc, […]

[3] = known from the literature; cited from earlier work

| Molecule | Incorporated vitamins (HCl extraction), Content [1] | Incorporated vitamins (NaOH extraction), Content [1] | further results |
| --- | --- | --- | --- |
| cyanocobalamin | 0.018 0/00 (mg/g) | 0.014 0/00 (mg/g) | – |
| Nc1nc2ncc(CNc3ccc(C(=O)N[C@@H](CCC(=O)O)C(=O)O)cc3)nc2c(=O)[nH]1 [Folic Acid, folic acid] | 0.203 0/00 (mg/g) | 2.663 0/00 (mg/g) | – |
| CN(C)[C@@H]1C(O)=C(C(N)=O)C(=O)[C@@]2(O)C(O)=C3C(=O)c4c(O)cccc4[C@@](C)(O)[C@H]3[C@H](O)[C@@H]12.Cl [Oxytetracyclin, oxytetracycline HCl] | – | – | Oxytetracyclin final soln. ([2]; Example 2, Test 3NO): 0.249 mg/mL |
| COc1cc([N-]S(=O)(=O)c2ccc(N)cc2)nc(OC)n1.[Na+] [sulphadimetoxin, sodium sulphadimethoxine] | – | – | Sulphadimetoxin final soln. ([2]; Example 3, Test 4NS1): 0.075 mg/mL; Sulphadimetoxin final soln. ([2]; Example 4, Test 6NS1): 0.066 mg/mL |
| Cc1ncc(C[n+]2csc(CCO)c2C)c(N)n1 [Tiamine, thiamine] | 3.787 0/00 (mg/g) | 3.493 0/00 (mg/g) | – |
| O=C1O[C@H]([C@@H](O)CO)C(O)=C1O [Ascorbic acid, ascorbic acid] | – | – | thermostability of ascorbic acid as such [3]: easily denatured at much lower temperatures; Ascorbic acid final soln. ([2]; Example 5, Test 5NC): 0.16 mg/mL |
